Here are results for 29 compounds from patent US20230250096A1, “SUBSTITUTED PHENYL-1H-PYRROLO[2,3-c] PYRIDINE DERIVATIVES” (Janssen Pharmaceutica NV, priority 2021, published 2023).

pIC50: −log10 of the molar value. Bounds are passed on as bounds.

For one assay, the system named is MEIS1 mRNA expression. The assay is described as follows: MEIS1 mRNA expression assay (Quantigene Singleplex) in MOLM14 cells. In kind it is cell-based, human. The settings on record: 48 hours incubation. The procedure, abridged:
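MOLM14 cells, 3,750/well, exposed to increasing compound concentrations for 48 h. MEIS1 mRNA measured by QuantiGene Singleplex branched-DNA hybridization (lysis 45 min, hybridization 18–22 h, both 55 °C), normalized to RPL28. IC50 fitted to background-corrected fold change versus DMSO.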

Assay [1] has as its target T1, menin/MLL (terbium chelate-labeled menin, FITC-MBM1 peptide) (Homo sapiens, UniProt O00255, T541A).
T1 construct: Menin (a.a 1-610-6xhis tag, 2.3 mg/mL in 20 mM Hepes)
T1 sequence (O00255 with tags, fused parts or gaps T541A): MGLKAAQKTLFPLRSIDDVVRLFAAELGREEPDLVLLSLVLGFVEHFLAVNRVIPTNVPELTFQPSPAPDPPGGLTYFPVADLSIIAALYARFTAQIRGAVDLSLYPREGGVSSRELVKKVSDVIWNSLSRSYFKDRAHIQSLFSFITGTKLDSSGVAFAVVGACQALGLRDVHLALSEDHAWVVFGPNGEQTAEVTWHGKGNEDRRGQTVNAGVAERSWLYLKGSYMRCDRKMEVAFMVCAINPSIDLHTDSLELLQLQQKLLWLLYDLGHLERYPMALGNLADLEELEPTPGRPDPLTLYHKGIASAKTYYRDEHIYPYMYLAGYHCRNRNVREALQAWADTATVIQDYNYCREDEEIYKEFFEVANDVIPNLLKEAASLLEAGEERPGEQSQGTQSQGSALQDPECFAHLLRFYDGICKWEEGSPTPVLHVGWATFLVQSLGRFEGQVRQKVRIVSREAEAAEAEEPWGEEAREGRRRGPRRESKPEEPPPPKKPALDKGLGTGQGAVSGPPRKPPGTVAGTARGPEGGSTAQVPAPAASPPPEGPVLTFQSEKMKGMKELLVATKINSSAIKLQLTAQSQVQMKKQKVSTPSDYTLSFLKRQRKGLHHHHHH
Put plainly: Menin/MLL homogenous time-resolved fluorescence (HTRF) assay. The assay is classed as binding. Conditions: 30 min incubation. The procedure, abridged:
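Terbium-labeled menin (a.a. 1-610, His-tagged; […]) pre-incubated 30 min with compound, then 75 nM FITC-MBM1 peptide added for 15 min at ambient temperature in Tris pH 7.5 buffer, 0.5% DMSO. HTRF 520/490 nm ratio read; IC50 from 11-point four-fold titrations, typically from 10 μM.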
(In general: TR-FRET usually uses a lanthanide donor and a delayed reading to cut background.)

By pIC50 is commonly meant the negative decadic logarithm of the IC50, by convention in mol/L. The low end stands for a high IC50, the high end for a low IC50.

On to `CC(=O)N1CCC([C@H](C)N2CC[C@H](Cc3cn(-c4ccc(F)cc4[S@@](=N)(=O)C(C)C)c4cncc(C)c34)C2)CC1` (single isomer, unassigned) [Compound 233b], for which the pIC50 with MEIS1 mRNA expression (Homo sapiens, MOLM-14, 48 h) is < 6.00; in assay [1] it was 8.65.

Regarding `Cc1cncc2c1c(C[C@@H]1CCN([C@@H](CN(C)C)C3CCOCC3)C1)cn2-c1ccc(F)cc1C(=O)N(C)C(C)C` (single isomer, unassigned) [Compound 240a], the pIC50 was 6.54 in the assay with MEIS1 mRNA expression (Homo sapiens, MOLM-14, 48 h) and 9.39 in assay [1].

Consider `Cc1cncc2c1c(C[C@@H]1CCN([C@H](CN(C)C)C3CCOCC3)C1)cn2-c1ccc(F)cc1C(=O)N(C)C(C)C` (single isomer, unassigned) [Compound 240b], for which the pIC50 in the assay with MEIS1 mRNA expression (Homo sapiens, MOLM-14, 48 h) is 7.42; in assay [1] it was 9.82.

On to `CCC(C1CCN(C(C)=O)CC1)N1CC[C@@H](Cc2cn(-c3ccc(F)cc3C(=O)N(C)C(C)C)c3cncc(C)c23)C1` (single isomer, unassigned) [Compound 246], for which the results for the pIC50 (in the assay on MEIS1 mRNA expression; in assay [1]) were 7.80 and 10.24, respectively.

As to `CCC(C1CCN(C(C)=O)CC1)N1CC[C@@H](Cc2cn(-c3ccc(F)cc3C(=O)N(C)C(C)C)c3cncc(C)c23)C1` (single isomer, unassigned) [Compound 247], the figures for the pIC50 (in the assay with MEIS1 mRNA expression; in assay [1]) were 6.94 and 9.75, respectively.

Consider `COCC[C@H](C1CCOCC1)N1CC[C@@H](Cc2cn(-c3ccc(F)cc3C(=O)N(C)C(C)C)c3cncc(C)c23)C1` (single isomer, unassigned) [Compound 252a], for which the negative logarithm of the IC50 (pIC50) in the assay with MEIS1 mRNA expression (Homo sapiens, MOLM-14, 48 h) was 7.16; in assay [1], 9.47.

Regarding `COCC[C@@H](C1CCOCC1)N1CC[C@@H](Cc2cn(-c3ccc(F)cc3C(=O)N(C)C(C)C)c3cncc(C)c23)C1` (single isomer, unassigned) [Compound 252b], the negative logarithm of the IC50 (pIC50) in the assay on MEIS1 mRNA expression (Homo sapiens, MOLM-14, 48 h) was 6.50; in assay [1], 9.60.

Take `Cc1cncc2c1c(C[C@@H]1CCN([C@H](CCO)C3CCOCC3)C1)cn2-c1ccc(F)cc1C(=O)N(C)C(C)C` (single isomer, unassigned) [Compound 253a]: the negative logarithm of the IC50 (pIC50) was ~6.27 with MEIS1 mRNA expression (Homo sapiens, MOLM-14, 48 h) and 8.83 in assay [1].

As to `Cc1cncc2c1c(C[C@@H]1CCN([C@@H](CCO)C3CCOCC3)C1)cn2-c1ccc(F)cc1C(=O)N(C)C(C)C` (single isomer, unassigned) [Compound 253b], the pIC50 in the assay on MEIS1 mRNA expression (Homo sapiens, MOLM-14, 48 h) is < 6.00; in assay [1], 8.76.

Take `CC(=O)N1CCC(N2CC(Cc3cn(-c4ccc(F)cc4C(=O)N(C)C(C)C)c4cncc(C)c34)C2)C[C@H]1C` (single isomer, unassigned) [Compound 292b]: the pIC50 was ~6.23 in the assay on MEIS1 mRNA expression (Homo sapiens, MOLM-14, 48 h) and 9.25 in assay [1].

`CC(=O)N1CCC(N2CC(Cc3cn(-c4ccc(F)cc4C(=O)N(C)C(C)C)c4cncc(C)c34)C2)C[C@@H]1C` (single isomer, unassigned) [Compound 293a]: the pIC50 was 6.83 in the assay with MEIS1 mRNA expression (Homo sapiens, MOLM-14, 48 h) and 9.34 in assay [1].

With `CC(=O)N1CCC(N2CC(Cc3cn(-c4ccc(F)cc4C(=O)N(C)C(C)C)c4cncc(C)c34)C2)C[C@@H]1C` (single isomer, unassigned) [Compound 293b], the negative logarithm of the IC50 (pIC50) was 6.59 with MEIS1 mRNA expression and 9.82 in assay [1].

On to `Cc1cncc2c1c(CC1CN([C@H]3CCN4C(=O)CCC4C3)C1)cn2-c1ccc(F)cc1C(=O)N(C)C(C)C` (single isomer, unassigned) [Compound 309b], for which the negative-log IC50 (pIC50) in the assay with MEIS1 mRNA expression (Homo sapiens, MOLM-14, 48 h) was < 6.00; in assay [1], 9.95.

On to `CC(=O)N1CCC(CN2CC[C@@H](Cc3cn(-c4ccc(F)cc4C(=O)N(C[C@@H](C)O)C(C)C)c4cncc(C)c34)C2)CC1` (single isomer, unassigned) [Compound 320a], for which the pIC50 with MEIS1 mRNA expression (Homo sapiens, MOLM-14, 48 h) was 7.62; in assay [1], 9.72.

Take `CC(=O)N1CCC(CN2CC[C@@H](Cc3cn(-c4ccc(F)cc4C(=O)N(C[C@H](C)O)C(C)C)c4cncc(C)c34)C2)CC1` (single isomer, unassigned) [Compound 320b]: the pIC50 in the assay on MEIS1 mRNA expression (Homo sapiens, MOLM-14, 48 h) was 7.21; in assay [1] it was 9.98.

As for `Cc1cncc2c1c(C[C@@H]1CCN(C[C@H]3CCNC(=O)CC3)C1)cn2-c1ccc(F)cc1C(=O)N1CCC2CC21` (single isomer, unassigned) [Compound 351a], the pIC50 is 7.92 in the assay with MEIS1 mRNA expression (Homo sapiens, MOLM-14, 48 h) and 10.40 in assay [1].

`Cc1cncc2c1c(C[C@@H]1CCN(C[C@@H]3CCNC(=O)CC3)C1)cn2-c1ccc(F)cc1C(=O)N1CCC2CC21` (single isomer, unassigned) [Compound 351b]: the pIC50 is 6.74 in the assay on MEIS1 mRNA expression (Homo sapiens, MOLM-14, 48 h) and 9.59 in assay [1].

As to `Cc1cncc2c1c(C[C@@H]1CCN(CC3CCOCC3)C1)cn2-c1ccc(F)cc1C(=O)N1CCC[C@]1(C)CO` (single isomer, unassigned) [Compound 362a], the pIC50 in the assay on MEIS1 mRNA expression (Homo sapiens, MOLM-14, 48 h) was 6.74; in assay [1] it was 9.83.

As to `Cc1cncc2c1c(C[C@@H]1CCN(CC3CCOCC3)C1)cn2-c1ccc(F)cc1C(=O)N1CCCC1C(C)O` (single isomer, unassigned) [Compound 363a], the results for the pIC50 (in the assay on MEIS1 mRNA expression; in assay [1]) were 6.44 and 9.64, respectively.

Turning to `Cc1cncc2c1c(C[C@@H]1CCN(CC3CCOCC3)C1)cn2-c1ccc(F)cc1C(=O)N1CCCC1C(C)O` (single isomer, unassigned) [Compound 363b], the values for the pIC50 (in the assay on MEIS1 mRNA expression; in assay [1]) were ~6.76 and 10.03, respectively.

`Cc1cncc2c1c(C[C@@H]1CCN(CC3CCOCC3)C1)cn2-c1ccc(F)cc1C(=O)N1CC[C@@H](O)C1(C)C` (single isomer, unassigned) [Compound 364a]: the negative-log IC50 (pIC50) in the assay on MEIS1 mRNA expression (Homo sapiens, MOLM-14, 48 h) was 6.65; in assay [1], 10.01.

Take `Cc1cncc2c1c(C[C@@H]1CCN(CC3CCOCC3)C1)cn2-c1ccc(F)cc1C(=O)N1CC[C@H](O)C1(C)C` (single isomer, unassigned) [Compound 364b]: the pIC50 in the assay on MEIS1 mRNA expression (Homo sapiens, MOLM-14, 48 h) is ~6.17; in assay [1], 9.53.

For `Cc1cncc2c1c(C[C@@H]1CCN(CC3CCOCC3)C1)cn2-c1ccc(F)cc1C(=O)N(C[C@@H](C)O)C(C)C` (single isomer, unassigned) [Compound 365a], the pIC50 was 7.46 in the assay with MEIS1 mRNA expression (Homo sapiens, MOLM-14, 48 h) and 9.99 in assay [1].

Consider `Cc1cncc2c1c(CC1CCN(C(CCC3OCCO3)C(C)C)C1)cn2-c1ccc(F)cc1C(=O)N(C)C(C)C` (single isomer, unassigned) [Compound 366], for which the pIC50 in the assay on MEIS1 mRNA expression (Homo sapiens, MOLM-14, 48 h) is ~6.50; in assay [1] it was 10.17.

In the case of `Cc1cncc2c1c(C[C@@H]1CCN([C@H](CCC3OCCO3)C(C)C)C1)cn2-c1ccc(F)cc1C(=O)N(C)C(C)C` (single isomer, unassigned) [Compound 367], the pIC50 in the assay with MEIS1 mRNA expression (Homo sapiens, MOLM-14, 48 h) was < 6.00; in assay [1], 9.70.

Turning to `Cc1cncc2c1c(C=C1CCN(CC3CCOCC3)C1)cn2-c1ccc(F)cc1C(=O)N(C)C(C)C` (single isomer, unassigned) [Compound 523a], the pIC50 with MEIS1 mRNA expression is < 6.00; in assay [1] it was 9.42.

As to `Cc1cncc2c1c(C=C1CCN(CC3CCOCC3)C1)cn2-c1ccc(F)cc1C(=O)N(C)C(C)C` (single isomer, unassigned) [Compound 523b], the pIC50 is 7.21 in the assay with MEIS1 mRNA expression and 9.91 in assay [1].

Consider `Cc1cncc2c1c(C=C1CCN(C)C1)cn2-c1ccc(F)cc1C(=O)N(C)C(C)C` (single isomer, unassigned) [Compound 524a], for which the pIC50 was 5.59 with MEIS1 mRNA expression and 7.72 in assay [1].

`Cc1cncc2c1c(C=C1CCN(C)C1)cn2-c1ccc(F)cc1C(=O)N(C)C(C)C` (single isomer, unassigned) [Compound 524b]: the pIC50 with MEIS1 mRNA expression (Homo sapiens, MOLM-14, 48 h) is 5.67; in assay [1], 8.06.
